Measured values reported in patent US20220008398A1 (priority 2018, published 2022).
“Also recorded” adds a separate entry of the source. Like-named read-outs stand apart in the source and are kept apart here.

What was measured:
[1] = tested on: drug-evoked expression of the immediate early gene c-fos, whole mouse brain
Text: A unique and novel approach to preclinical testing of psychiatric drugs is based on the proposition that a direct readout of drug-evoked brain activation or inhibition in an animal is the most relevant preclinical assay, because psychiatric drugs exert their effects via activation or inhibition of specific neural circuits and cell types in the brain. […] The method called “pharmacomapping” (implemented by Certerra, Inc. Farmingdale, N.Y.) is based on a largely automated drug-screening platform that comprises whole-brain detection of drug-evoked neuronal activation represented by drug-evoked expression of the immediate early gene (IEG) c-fos (Herrera and Robertson 1996). Until now, the detection of c-fos as a marker of brain activation has been done by laborious methods of in situ hybridization or immunohistochemistry in brain tissue sections, followed by mounting the sections on microscopic slides, manual imaging, and largely visual quantification. Nevertheless, over the last two decades a number of studies used these methods to test drug-evoked activity in the mouse or rat brain for various psychoactive medications, including antipsychotics, antidepressants, stimulants and anxiolytics (Engber et al., 1998; Kiss, 2018; Salminen et al., 1996; SEMBA et al., 1996; Slattery et al., 2005; Sumner et al., 2004).
In contrast to the older methods, the pharmacomapping method uses automated and standardized whole-brain immunostaining and brain clearing together with advanced microscopy (light-sheet fluorescence microscopy, LSFM), computational (e.g. machine learning) and statistical methods (FIG. 1). The first generation of this platform used serial two-photon tomography (STPT) as a method for imaging and c-fos-GFP mice expressing green fluorescent protein (GFP) under the control of the c-fos promoter (US 20140297199A1).

[2] = tested on: time spent floating (immobility) in forced swim; test: Forced swim test; type: in vivo; conditions: mouse, single dose 10 mg/kg, 1 hour and 24 hours after drug delivery, vs vehicle treated control group
Experimental: The forced swim test is a frequently used behavioral protocol with a well-established therapeutic predictability for a broad range of antidepressants including ketamine (Porsolt et al. 1977; Cryan and Mombereau 2004; Cryan et al. 2005; Lucki et al. 2001). In this test the mouse is put in a beaker filled with water and the time spent struggling, swimming and floating is measured, with the time spent floating—when the mouse stops struggling to swim—being used as a behavioral correlate of depression.

[3] = tested on: severe major depressive disorder; conditions: 490 patients, daily oral gaboxadol 5 mg or 10 mg added to escitalopram 20 mg; cited from earlier work
[4] = tested on: suicidal ideation in major depressive disorder; test: Prospective randomized clinical trial of oral gaboxadol versus ketamine in patients at risk of suicide
[5] = tested on: combined delta, theta and alpha activity; conditions: 160 minutes after administration; cited from earlier work
[6] = tested on: sleep onset and sleep maintenance; conditions: three-month efficacy study, insomnia; cited from earlier work
[7] = acute single dose 10 mg/kg, 10 mg/kg
[8] = gaboxadol group vs ketamine group

Structure (SMILES)	drug-evoked brain activation (pharmacomap) ([1]; 6 mg/kg alone)	drug-evoked brain activation (pharmacomap) ([1]; acute single dose 5 mg/kg)	drug-evoked brain activation (pharmacomap) [1, 7]	drug-evoked brain activation (pharmacomap) ([1]; acute single dose 100 mg/kg)	time spent floating (immobility) during 6 min forced swim [2]	benefit in treatment of severe major depressive disorder [3]	drug-evoked brain activation (pharmacomap) ([1]; 3 mg/kg alone)	drug-evoked brain activation (pharmacomap) ([1]; acute single dose 10 mg/kg, listed as Gaboxadol, 10 mg/kg)	day 1 POMS total mood disturbance score [4, 8]	decrease in suicidal ideation at 230 minutes [4, 8]	proportion of responders on the SSI at day 1 [4, 8]	Cohen's d for the difference in mean group change (SSI) ([4]; gaboxadol group vs ketamine group, baseline to day 1)	average SSI score at day 1 ([4]; gaboxadol hydrochloride 0.85 mg/kg oral vs ketamine 0.5 mg/kg infusion, 24 hours)	whole head MEG planar gradiometer increase in combined delta, theta and alpha activity [5]	effects in sleep onset and sleep maintenance [6]
CNC1(c2ccccc2Cl)CCCCC1=O (centres unmarked) [ketamine]	neither gaboxadol at 3 mg/kg nor ketamine at 6 mg/kg alone evoked any brain activation detectable	modest activation	very robust and broad activation; also recorded: very broad activation pattern	modest activation	significantly decreases the time the drug treated mice spent floating; also recorded: significantly reduced the time spent in floating (immobility)	–	–	–	–	–	–	–	–	–	–
Oc1noc2c1CCNC2 [gaboxadol, 4,5,6,7-tetrahydroisoxazolo [5,4-c]pyridine-3-ol]	–	–	very similar brain activation as ketamine	–	nearly identical behavioral effect as the ketamine group; also recorded: significantly reduced the time spent in floating (immobility)	no additional benefit	neither gaboxadol at 3 mg/kg nor ketamine at 6 mg/kg alone evoked any brain activation detectable	broad brain activation that is highly similar to that of ketamine	greater improvement in the gaboxadol group compared with the ketamine group	greater in the gaboxadol group compared with the ketamine group	significantly higher in the gaboxadol group than the ketamine group	greater than medium effect size	lower in the gaboxadol group compared with the ketamine group	≥ +3	failed to show significant effects in sleep onset and sleep maintenance
